The subject of the experiment is serum calcium concentration.

Where a SMILES comes first, the peptide text is derived from it. Bridges are numbered along the chain shown (N, C = ends). The star is where a group is joined. Propionyl = CCC(=O)*

Description: Biological Assay of Calcitonin Analogs in Vivo
The biological potency of [N-alpha-Propionyl, 8-glycine, des-19-leucine] salmon calcitonin was determined by comparing the reduction of serum calcium concentration which followed administration by graded doses of [N-alpha-Propionyl, Gly^8, des-Leu^19 ]-SCT and synthetic salmon calcitonin standard. Rats were divided into four groups of seven animals, and each group was assigend at random to a dose of standard or test solution. Low and high doses were chosen from the linear portion of the dose-response curve. For the salmon calcitonin standard, the values were 0.7 and 2.1 ng. peptide/100 g. BW. Peptides were given by subcutaneous injection (0.2 ml/100 g. BW) and blood was withdrawn 1 hour later for serum calcium determination. Sera are processed and analyzed within two hours of collection.

On to `CCC(=O)N[C@H]1CSSC[C@@H](C(=O)NCC(=O)N[C@@H](CC(C)C)C(=O)NCC(=O)N[C@@H](CCCCN)C(=O)N[C@@H](CC(C)C)C(=O)N[C@@H](CO)C(=O)N[C@@H](CCC(N)=O)C(=O)N[C@@H](CCC(=O)O)C(=O)N[C@@H](CC(C)C)C(=O)N[C@@H](Cc2c[nH]cn2)C(=O)N[C@@H](CCCCN)C(=O)N[C@@H](CCC(N)=O)C(=O)N[C@H](C(=O)N[C@@H](Cc2ccc(O)cc2)C(=O)N2CCC[C@H]2C(=O)N[C@@H](CCCNC(=N)N)C(=O)N[C@H](C(=O)N[C@@H](CC(N)=O)C(=O)N[C@H](C(=O)NCC(=O)N[C@@H](CO)C(=O)NCC(=O)N[C@H](C(=O)N2CCC[C@H]2C(N)=O)[C@@H](C)O)[C@@H](C)O)[C@@H](C)O)[C@@H](C)O)NC(=O)[C@H]([C@@H](C)O)NC(=O)[C@H](CO)NC(=O)[C@H](CC(C)C)NC(=O)[C@H](CC(N)=O)NC(=O)[C@H](CO)NC1=O` [[N alpha-propionyl, 8-glycine, des-19-leucine] salmon calcitonin] (Propionyl-CSNLSTCGLGKLSQELHKQTYPRTNTGSGTP-NH2; disulfide 1-7), for which, for the setting “rat, in vivo, sc”, the biological potency is 9,700 IU/mg.

Turning to `CC(C)C[C@H](NC(=O)[C@H](CCCCN)NC(=O)CNC(=O)[C@H](CC(C)C)NC(=O)[C@@H](NC(=O)[C@@H]1CSSC[C@H](N)C(=O)N[C@@H](CO)C(=O)N[C@@H](CC(N)=O)C(=O)N[C@@H](CC(C)C)C(=O)N[C@@H](CO)C(=O)N[C@@H]([C@@H](C)O)C(=O)N1)C(C)C)C(=O)N[C@@H](CO)C(=O)N[C@@H](CCC(N)=O)C(=O)N[C@@H](CCC(=O)O)C(=O)N[C@@H](CC(C)C)C(=O)N[C@@H](Cc1c[nH]cn1)C(=O)N[C@@H](CCCCN)C(=O)N[C@@H](CC(C)C)C(=O)N[C@@H](CCC(N)=O)C(=O)N[C@H](C(=O)N[C@@H](Cc1ccc(O)cc1)C(=O)N1CCC[C@H]1C(=O)N[C@@H](CCCNC(=N)N)C(=O)N[C@H](C(=O)N[C@@H](CC(N)=O)C(=O)N[C@H](C(=O)NCC(=O)N[C@@H](CO)C(=O)NCC(=O)N[C@H](C(=O)N1CCC[C@H]1C(N)=O)[C@@H](C)O)[C@@H](C)O)[C@@H](C)O)[C@@H](C)O` [standard salmon calcitonin, Salmon calcitonin], the “biological potency of the standard, independently determined” value (standard salmon calcitonin used in the assay) is recorded as “greater than 4,000 IU/mg”.
